# Laboratory results published in ChEMBL document CHEMBL1158235, “Dendroamides, new cyclic hexapeptides from a blue-green alga. Multidrug-resistance reversing activity of dendroamide A” (J Nat Prod, 1996).
# Calls of active or inactive are those of the source. The calls are words filed in the database; no cut-off is given here.
# Experiments:
# Type in all cases: cell-based
# [1] = biological target: T1, ATP-dependent translocase ABCB1 (Homo sapiens, UniProt P08183); test: Inhibition of p-glycoprotein expressing human MCF7 cells assessed as [3H]vinblastine accumulation
# NCI/ADR-RES [2] = test: Displacement of [3H]azidopine from p-glycoprotein expressed in human MCF7/ADR cells assessed as photoaffinity labeling reduction at 10 uM; set-up: scale not given: the % may be the effect or the level left
# MCF7/VP [3] = test: Inhibition of MRP expressed in human MCF7/VP cells assessed as increase in vincristine-induced cytotoxicity at 20 uM after 48 hrs by SRB binding assay
# [4] = biological target: T1, ATP-dependent translocase ABCB1; test: Inhibition of p-glycoprotein expressing human MCF7/ADR cells assessed as cell killing after 48 hrs by SRB binding assay in presence of 4 uM cisplatin; conditions: nci/adr-res
# MCF7/VP [5] = test: Inhibition of MRP expressed in human MCF7/VP cells assessed as increase in etoposide-induced cytotoxicity
# NCI/ADR-RES [6] = test: Displacement of [3H]azidopine from p-glycoprotein expressed in human MCF7/ADR cells assessed as photoaffinity labeling reduction at 0.5 uM; set-up: scale not given: the % may be the effect or the level left
# MCF7/VP [7] = test: Inhibition of MRP expressed in human MCF7/VP cells assessed as increase in cisplatin-induced cytotoxicity
# [8] = biological target: T1, ATP-dependent translocase ABCB1; test: Inhibition of p-glycoprotein expressing human MCF7/ADR cells assessed as cell killing after 48 hrs by SRB binding assay in presence of 15M daunomycin; conditions: nci/adr-res
# MCF7/VP [9] = test: Inhibition of MRP expressed in human MCF7/VP cells assessed as increase in doxorubicin-induced cytotoxicity
# [10] = biological target: T1, ATP-dependent translocase ABCB1; test: Inhibition of p-glycoprotein expressing human MCF7/ADR cells assessed as increase in vinblastine sensitivity to cell killing at 0.6 uM after 48 hrs by SRB assay; conditions: nci/adr-res
# MCF7/VP [11] = test: Inhibition of MRP expressing human MCF7/VP cells assessed as increase in vincristine-induced cytotoxicity at 5 to 10 uM after 48 hrs by SRB binding assay
# [12] = biological target: T1, ATP-dependent translocase ABCB1; test: Inhibition of p-glycoprotein expressing human MCF7/ADR cells assessed as cell killing after 48 hrs by SRB binding assay in presence of 200 uM actinomycin D; conditions: nci/adr-res
# [13] = biological target: T1, ATP-dependent translocase ABCB1; test: Inhibition of p-glycoprotein expressing human MCF7/ADR cells assessed as [3H]vinblastine accumulation treated at 5 uM measured after 60 mins; conditions: nci/adr-res, 1 h
# [14] = biological target: T1, ATP-dependent translocase ABCB1; test: Inhibition of p-glycoprotein expressing human MCF7/ADR cells assessed as [3H]vinblastine accumulation treated at 20 uM measured after 60 mins; conditions: nci/adr-res, 1 h
# T1 sequence (P08183 whole entry): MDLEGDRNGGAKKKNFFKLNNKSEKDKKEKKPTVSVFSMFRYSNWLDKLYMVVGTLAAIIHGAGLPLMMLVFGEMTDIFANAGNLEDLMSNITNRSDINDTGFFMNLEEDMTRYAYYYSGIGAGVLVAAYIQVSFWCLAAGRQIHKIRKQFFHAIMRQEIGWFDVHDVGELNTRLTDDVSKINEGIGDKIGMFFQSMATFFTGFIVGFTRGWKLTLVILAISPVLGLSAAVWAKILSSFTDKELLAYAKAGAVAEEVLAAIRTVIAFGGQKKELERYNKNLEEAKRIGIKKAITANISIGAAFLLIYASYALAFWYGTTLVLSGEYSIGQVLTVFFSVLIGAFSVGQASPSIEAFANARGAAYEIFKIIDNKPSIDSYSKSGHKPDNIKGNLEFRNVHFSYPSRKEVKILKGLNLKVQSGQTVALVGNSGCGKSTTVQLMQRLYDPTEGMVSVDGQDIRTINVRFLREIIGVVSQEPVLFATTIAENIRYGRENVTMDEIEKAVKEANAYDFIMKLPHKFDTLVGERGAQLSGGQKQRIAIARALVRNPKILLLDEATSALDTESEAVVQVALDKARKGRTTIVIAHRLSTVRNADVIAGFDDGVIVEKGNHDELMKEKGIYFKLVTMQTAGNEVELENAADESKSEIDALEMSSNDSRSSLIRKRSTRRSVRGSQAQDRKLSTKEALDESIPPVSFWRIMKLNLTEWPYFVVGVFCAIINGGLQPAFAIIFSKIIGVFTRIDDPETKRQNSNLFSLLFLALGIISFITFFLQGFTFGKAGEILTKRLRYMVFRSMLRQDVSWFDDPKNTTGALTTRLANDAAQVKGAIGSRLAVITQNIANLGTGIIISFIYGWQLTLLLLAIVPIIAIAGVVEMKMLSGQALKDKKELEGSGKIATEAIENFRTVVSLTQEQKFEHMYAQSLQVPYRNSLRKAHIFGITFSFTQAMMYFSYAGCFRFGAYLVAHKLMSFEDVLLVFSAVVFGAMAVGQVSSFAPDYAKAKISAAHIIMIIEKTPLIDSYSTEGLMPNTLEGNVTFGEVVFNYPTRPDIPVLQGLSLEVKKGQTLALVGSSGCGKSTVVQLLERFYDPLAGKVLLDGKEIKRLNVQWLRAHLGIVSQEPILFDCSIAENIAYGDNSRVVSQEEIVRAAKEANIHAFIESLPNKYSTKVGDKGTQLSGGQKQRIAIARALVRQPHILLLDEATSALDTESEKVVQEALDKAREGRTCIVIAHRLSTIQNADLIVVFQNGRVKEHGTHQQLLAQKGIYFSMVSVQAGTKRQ
Activity [1],Activity [13],Activity [14],SMILES,Activity (NCI/ADR-RES [2]),Activity (MCF7/VP [3]),Activity [4],Activity (MCF7/VP [5]),Activity (NCI/ADR-RES [6]),Activity (MCF7/VP [7]),Activity [8],Activity (MCF7/VP [9]),Activity [10],Activity (MCF7/VP [11]),Activity [12]
Not Active,–,–,COc1ccc(CCN(C)CCCC(C#N)(c2ccc(OC)c(OC)c2)C(C)C)cc1OC (stereo unspecified) [VERAPAMIL],50%,Active,–,–,–,–,–,–,–,–,–
Not Active,–,–,Cc1oc2nc1C(=O)N[C@H](C(C)C)c1nc(cs1)C(=O)N[C@H](C)c1nc(cs1)C(=O)N[C@@H]2C [DENDROAMIDE A],–,–,Not Active,Active,50%,inactive,Active,Active,Active,Active,Active
Not Active,Not Active,Not Active,CSCC[C@H]1NC(=O)c2csc(n2)[C@@H](C)NC(=O)c2nc(oc2C)[C@@H](C)NC(=O)c2csc1n2 [DENDROAMIDE B],inactive,–,Not Active,–,inactive,–,Not Active,–,Not Active,–,Not Active
Not Active,Not Active,Not Active,Cc1oc2nc1C(=O)N[C@H](C)c1nc(cs1)C(=O)N[C@H](CC[S+](C)[O-])c1nc(cs1)C(=O)N[C@@H]2C (stereo partly specified) [DENDROAMIDE C],inactive,–,Not Active,–,inactive,–,Not Active,–,Not Active,–,Not Active
